Experimental data as given in patent US11932663B2 (CanWell Biotech Limited, priority 2020, dated 2024).

The molecules below were run on Human PBMC (assay: TLR7/8 agonists induce cytokine release in human PBMC (ELISA of culture supernatant)). Details: 24 h incubation, lowest concentration inducing cytokine at least 2x greater than negative control wells.
Type: cell-based
Protocol: Example 8. TLR7/8 Agonists Induce IFN-Gamma and TNF-Alpha Release in Human PBMC
The system is used to assess the cytokines release. Activity is based on the measurement of interferon-gamma (IFN-γ) and tumor necrosis factor-alpha (TNF-α) secreted into culture media.
Fresh human blood was diluted with the same volume of PBS, 15 mL Lymphoprep was added into a Sepmate tube, then 30 mL diluted blood was added on the top gently without disturbing the interface.
The Sepmate tube was centrifuged for 25 min at 1000×g at RT with brake off.
The buffy coat containing peripheral blood mononuclear cells (PBMCs) was collected from Sepmate tube and transferred into a new tube, and the cells were washed with 40 mL PBS twice and centrifuged at 350×g for 5 min.
PBMCs were resuspended in complete culture medium at a density of 2E6/ml.
The compounds are solubilized in dimethyl sulfoxide (DMSO) and diluted into indicated concentration with complete culture medium.
2*10^5 PBMCs (in 100 μL) were added to each well of 96-well flat bottom plate.
2× final concentration of 3-fold serial diluted compounds (in 100 μL) were added to indicated wells and final volume was 200 μL.
The plate was covered with sterile lids, mixed gently and then incubated for 24 h at 37° C./5% CO2 incubator.
Following incubation, the plates was centrifuged for 5 min. at 400×g. The cell-free culture Supernatant was removed into a non-sterile polypropylene plate. Samples are maintained at −80° C. until analysis. The samples were analyzed for TNF-α and IFN-γ by ELSA according to the direction.
TNF-α and IFN-α were analyzed by ELISA. IFN-α concentration was determined by ELISA using a Human IFN-α ELISA Kit from R&D Systems (Catalog #41100-2) and read on VICTOR Nivo™ from PerkinElmer. Results were expressed in pg/mL. TNF-α concentration was determined by ELISA using a Human TNF-alpha ELISA MAX™ Deluxe from BioLegend (Catalog #430205) and read on VICTOR Nivo™ from PerkinElmer. Results were expressed in pg/mL.
Specifically, the MEC of each compound (micromolar) was determined as the lowest concentration of the compound that induced a measured cytokine response at a level ([…]) that was at least 2× greater than that observed with the negative control wells.

Structure (SMILES) | MEC to induce cytokine IFN-alpha | MEC to induce cytokine TNF-alpha
CCCCc1nc2c(N)nc3cc(P(=O)(CC)CC)ccc3c2n1OCCCCN [Example 2, (4-amino-1-(4-aminobutoxy)-2-butyl-1H-imidazo[4,5-c]quinolin-7-yl)diethylphosphine oxide] | 0.137 µM | 11.1 µM
CCCCCCCCCCCCCCCCCc1cn(CCCCOn2c(CCCC)nc3c(N)nc4cc(P(C)(C)=O)ccc4c32)nn1 [Example 6, (4-amino-2-butyl-1-(4-(4-heptadecyl-1H-1,2,3-triazol-1-yl)butoxy)-1H-imidazo[4,5-c]quinolin-7-yl)dimethylphosphine oxide] | >33.3 µM | >33.3 µM
CCCCCCCCCCCCCCCCCNc1c(NCCCCOn2c(CCCC)nc3c(N)nc4cc(P(C)(C)=O)ccc4c32)c(=O)c1=O [Example 4] | 1.73 µM | 11.1 µM
CCCCCCCCCCCCCCCCCNc1c(NCCCCOn2c(CCCC)nc3c(N)nc4cc(P(=O)(CC)CC)ccc4c32)c(=O)c1=O [Example 7, 3-(4-(4-amino-2-butyl-7-(diethylphosphoryl)-1H-imidazo[4,5-c]quinolin-1-yloxy)butylamino)-4-(heptadecylamino)cyclobut-3-ene-1,2-dione] | 0.015 µM | 3.7 µM
CCCCc1nc2c(N)nc3cc(P(C)(C)=O)ccc3c2n1OCCCCN [Example 1, (4-amino-1-(4-aminobutoxy)-2-butyl-1H-imidazo[4,5-c]quinolin-7-yl)dimethylphosphine oxide] | 0.046 µM | 3.7 µM
CCCCCCCCCCCCCCCCCC(=O)NCCCCOn1c(CCCC)nc2c(N)nc3cc(P(C)(C)=O)ccc3c21 [Example 3, N-(4-((4-amino-2-butyl-7-(dimethylphosphoryl)-1H-imidazo[4,5-c]quinolin-1-yl)oxy)butyl)stearamide] | 0.015 µM | 0.015 µM
